Read-outs that look alike come from different tables or passages of the source. No end group written: not given here.
Columns and labels:
[1] = 90 % homology to known functional peptides; ref BIOPEP, EROP-Moscow, MBPDB databases; cited from earlier work
Excerpt: Supplement mmc2.doc, table 1: Table S2. Bioactive peptides identified in Rushan cheese whey hydrolysates (RCWH). | column: Potential bioactive

[2] = target: T1, ACE (Oryctolagus cuniculus, UniProt P12822); conditions: cited from earlier work
T1 sequence (P12822 34-1310): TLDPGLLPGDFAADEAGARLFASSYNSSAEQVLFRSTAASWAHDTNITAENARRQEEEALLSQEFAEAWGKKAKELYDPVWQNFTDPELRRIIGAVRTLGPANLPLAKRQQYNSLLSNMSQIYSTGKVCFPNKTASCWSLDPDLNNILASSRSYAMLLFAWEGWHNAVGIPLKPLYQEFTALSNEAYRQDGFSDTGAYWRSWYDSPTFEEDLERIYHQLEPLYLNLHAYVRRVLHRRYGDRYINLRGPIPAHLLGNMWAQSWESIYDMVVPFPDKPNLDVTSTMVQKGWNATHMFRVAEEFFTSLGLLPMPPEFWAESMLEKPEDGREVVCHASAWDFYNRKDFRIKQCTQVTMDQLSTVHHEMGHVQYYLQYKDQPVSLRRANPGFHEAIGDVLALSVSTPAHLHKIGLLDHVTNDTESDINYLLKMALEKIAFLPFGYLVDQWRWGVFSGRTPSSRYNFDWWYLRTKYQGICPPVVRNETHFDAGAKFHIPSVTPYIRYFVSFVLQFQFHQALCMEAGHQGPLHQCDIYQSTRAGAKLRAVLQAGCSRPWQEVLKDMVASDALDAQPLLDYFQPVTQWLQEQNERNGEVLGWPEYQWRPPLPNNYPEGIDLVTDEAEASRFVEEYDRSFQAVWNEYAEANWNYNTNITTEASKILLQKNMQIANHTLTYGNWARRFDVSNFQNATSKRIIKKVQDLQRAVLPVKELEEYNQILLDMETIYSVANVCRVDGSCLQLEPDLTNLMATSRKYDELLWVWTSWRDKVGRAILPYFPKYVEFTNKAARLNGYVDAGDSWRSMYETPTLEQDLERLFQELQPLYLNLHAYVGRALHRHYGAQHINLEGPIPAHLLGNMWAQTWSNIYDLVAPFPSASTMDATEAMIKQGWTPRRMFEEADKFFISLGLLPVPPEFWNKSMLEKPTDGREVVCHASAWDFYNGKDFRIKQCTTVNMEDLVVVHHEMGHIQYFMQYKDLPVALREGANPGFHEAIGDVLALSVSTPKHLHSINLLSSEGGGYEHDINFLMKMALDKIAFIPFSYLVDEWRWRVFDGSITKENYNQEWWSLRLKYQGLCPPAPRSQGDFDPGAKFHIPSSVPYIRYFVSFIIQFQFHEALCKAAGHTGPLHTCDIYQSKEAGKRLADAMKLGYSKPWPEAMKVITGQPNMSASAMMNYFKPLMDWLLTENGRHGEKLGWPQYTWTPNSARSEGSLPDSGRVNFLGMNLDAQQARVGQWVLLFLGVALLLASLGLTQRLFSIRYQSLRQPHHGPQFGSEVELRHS

[3] = target: T1, ACE; test: In-vitro ACE inhibitory activity (HHL substrate, hippuric acid absorbance at 228 nm); type: biochemical; conditions: synthetic peptides; 5 mM HHL, 25 mU/mL ACE, 37 °C 30 min, absorbance 228 nm; calculated from regression equations; mean ± SD, n = 3
Protocol: ACE inhibitory activity of whey hydrolysate fractions with different MW was assessed by a method reported by [Cushman and Cheung (1971)]. In brief, 30 μL of whey hydrolysate fraction was added to 80 μL of 5 mM HHL and incubated at 37 °C for 10 min. Then, 20 μL of 25 mU/ mL ACE was added to the mixture. The reaction was performed at 37 °C for 30 min and then stopped by adding 250 μL of 1 M HCl. Subsequently, 1.7 mL of ethyl acetate was added to the mixture to extract the released hippuric acid. After vigorous stirring for 10 s, the samples were submitted to centrifugation (TLG20M, Changsha Maijiasen Instrument Equipment Co., Ltd., China) at 5,000 rcf at 4 °C for 15 min. Then 1.4 mL of the organic phase was transferred to a fresh test tube. Ethyl acetate was evaporated by placing samples in a boiling water bath. The residue was dissolved in 3 mL of deionized water, and absorbance was measured at 228 nm by enzyme marker (Multiskan FC, Thermo Fisher Scientific). The following formula was used to calculate ACE inhibition rate: ACE-inhibition rate\%:[1-(C-D)/(A-B)]×100% Where A represents the absorbance with ACE but without the sample; B the absorbance without ACE and the sample; C the absorbance in the presence of ACE and the sample; and D the absorbance with the sample but without ACE.

[4] = not given; remark: listed apart in the source
[5] = not given; remark: listed apart in the source
[6] = food-derived non-competitive ACEIPs, ref Xie et al., 2022, Paisansak et al., 2021
[7] = peptides derived from eel bone, ref Shao, 2022
[8] = peptides derived from large yellow croaker, ref Li, 2021
[9] = ACEIPs with mixed inhibitory patterns, ref Chen et al., 2020, Xie et al., 2022

In the case of DKIHPF, the Potential bioactive [1] is given as “ACE inhibitor”.
For GYGGVSLPEW, the ACE inhibition pattern [2, 6] is given as “non-competitive”.
For GPIGPPGPR, the “IC50 (ACE inhibitory activity)” value [2, 7] is given as 1441 µg/mL.
With DDFFHR [DDFFHR] the IC50 [3] was greater than 1200 µM.
For VYPFPGPIP, the Potential bioactive [1] is given as “Antihypertensive”.
For LKPTPEGDLE, the Potential bioactive [1] is given as “Dipeptidyl peptidase IV inhibitor”.
For PFPGPIPN, the Potential bioactive [1] is given as “ACE inhibitor”.
In the case of LGYSF, the “IC50 (ACE inhibitory activity)” value [2, 8] is given as 510 µg/mL.
Substance GKWEKPF [GKWEKPF] has an IC50 [3] greater than 1120 µM.
With YDFYPR [YDFYPR] the IC50 [3] was greater than 1160 µM.
For YPFPGPI, the Potential bioactive [1] is given as “ACE inhibitor, Antioxidative, Anticancer”.
For PMGPR, the “IC50 (ACE inhibitory activity)” value [2, 7] is given as 1470 µg/mL.
In the case of GPMGPR, the “IC50 (ACE inhibitory activity)” value [2, 7] is given as 2247 µg/mL.
For LLAGGW, the “IC50 (ACE inhibitory activity)” value [2, 8] is listed as 490 µg/mL.
For KVLPVPQK, the Potential bioactive [1] is given as “ACE inhibitor, Antioxidative”.
In the case of VGINYW, the ACE inhibition pattern [2, 6] is given as “non-competitive”.
Substance H-KWEKPF-OH has a β-sheet content of 38%, a α-helix content [4] of 20.2% and a β-turn content [5] of 41.7%.
In the case of “LSGYGP [literature mixed-pattern ACEIP derived from tilapia]”, the ACE inhibition pattern [2, 9] is listed as “mixed”.
For VYPFPGPI, the Potential bioactive [1] is listed as “Antihypertensive”.
In the case of GPAGPR, the “IC50 (ACE inhibitory activity)” value [2, 7] is given as 1246 µg/mL.
For MAIPPKK, the Potential bioactive [1] is listed as “ACE inhibitor”.
For DKVGINY, the Potential bioactive [1] is given as “ACE inhibitor”.
For KIGSRSRFDVT, the ACE inhibition pattern [2, 6] is given as “non-competitive”.
For “SLPEW [literature mixed-pattern ACEIP derived from alpha-lactalbumin]”, the ACE inhibition pattern [2, 9] is listed as “mixed”.
In the case of SKVLPVPQ, the Potential bioactive [1] is listed as “ACE inhibitor”.
In the case of GGPGPSGPR, the “IC50 (ACE inhibitory activity)” value [2, 7] is given as 758 µg/mL.
For GPSGAPGPR, the “IC50 (ACE inhibitory activity)” value [2, 7] is listed as 1022 µg/mL.
For DKVGINYW, the Potential bioactive [1] is given as “ACE inhibitor”.
In the case of GVSLPEW, the ACE inhibition pattern [2, 6] is given as “non-competitive”.
For AVPYPQR, the Potential bioactive [1] is listed as “ACE inhibitor, Antimicrobial, Antioxidative”.
For YPFPGPIP, the Potential bioactive [1] is listed as “ACE inhibitor, Antioxidative”.
In the case of H-FDRPFL-OH, the β-sheet content is reported as 38.3%, the α-helix content [4] is reported as 22.4% and the β-turn content [5] is reported as 39.3%.
For “VSLPEW [literature mixed-pattern ACEIP derived from alpha-lactalbumin]”, the ACE inhibition pattern [2, 9] is listed as “mixed”.

Source: publication PMC10878854, “Identification, structural characterization, and molecular dynamic simulation of ACE inhibitory peptides in whey hydrolysates from Chinese Rushan cheese by-product” (Food Chemistry: X, 2024)
